The CheMixHub viscosity set

Assay: xn = mol fraction of the nth substance listed

C1CCOC1 + CCCCO
101 kPa
Conditions | viscosity [mPa·s]
298.15 K, x1 = 0.0512 | 2.141
298.15 K, x1 = 0.102 | 1.844
298.15 K, x1 = 0.1406 | 1.658
298.15 K, x1 = 0.183 | 1.504
298.15 K, x1 = 0.3126 | 1.154
298.15 K, x1 = 0.4002 | 0.9777
298.15 K, x1 = 0.4443 | 0.9072
298.15 K, x1 = 0.5 | 0.8514
298.15 K, x1 = 0.5121 | 0.8099
298.15 K, x1 = 0.5924 | 0.7195
298.15 K, x1 = 0.6795 | 0.6388
298.15 K, x1 = 0.7633 | 0.5776
298.15 K, x1 = 0.8268 | 0.5346
298.15 K, x1 = 0.8944 | 0.5033
298.15 K, x1 = 0.9677 | 0.4714
313.15 K, x1 = 0.0576 | 1.529
313.15 K, x1 = 0.1184 | 1.324
313.15 K, x1 = 0.173 | 1.166
313.15 K, x1 = 0.2282 | 1.035
313.15 K, x1 = 0.3549 | 0.831
313.15 K, x1 = 0.4542 | 0.7105
313.15 K, x1 = 0.5481 | 0.6237
313.15 K, x1 = 0.6462 | 0.5526
313.15 K, x1 = 0.7386 | 0.4994
313.15 K, x1 = 0.8296 | 0.4574
313.15 K, x1 = 0.8747 | 0.439
313.15 K, x1 = 0.9154 | 0.4256
313.15 K, x1 = 0.9584 | 0.4129

CC(C)=O + CCCCO
Conditions | viscosity [mPa·s]
298.15 K, 101 kPa, x1 = 0.12 | 1.65
298.15 K, 101 kPa, x1 = 0.24 | 1.164
298.15 K, 101 kPa, x1 = 0.35 | 0.8875
298.15 K, 101 kPa, x1 = 0.46 | 0.7108
298.15 K, 101 kPa, x1 = 0.56 | 0.5919
298.15 K, 101 kPa, x1 = 0.66 | 0.5089
298.15 K, 101 kPa, x1 = 0.75 | 0.4285
298.15 K, 101 kPa, x1 = 0.84 | 0.4014
298.15 K, 101 kPa, x1 = 0.92 | 0.3651
303.15 K, 101.33 kPa, x1 = 0.1152 | 1.535
303.15 K, 101.33 kPa, x1 = 0.2307 | 1.127
303.15 K, 101.33 kPa, x1 = 0.3341 | 0.879
303.15 K, 101.33 kPa, x1 = 0.4685 | 0.642
303.15 K, 101.33 kPa, x1 = 0.7032 | 0.427
303.15 K, 101.33 kPa, x1 = 0.7974 | 0.368

CCCCn1cc[n+](C)c1.O=S(=O)([O-])C(F)(F)F + CCCCO
100 kPa
Conditions | viscosity [mPa·s]
298.15 K, x1 = 0.2147 | 6.17
298.15 K, x1 = 0.2908 | 8.85
298.15 K, x1 = 0.9078 | 62.73
303.15 K, x1 = 0.2147 | 5.08
303.15 K, x1 = 0.2908 | 6.92
303.15 K, x1 = 0.9078 | 50.78
308.15 K, x1 = 0.2908 | 6.03
313.15 K, x1 = 0.4008 | 9.48
318.15 K, x1 = 0.4008 | 7.86
323.15 K, x1 = 0.4008 | 7.16

COc1ccccc1 + CCCCO
viscosity [mPa·s]
Conditions | 303 K | 303.15 K | 313 K | 313.15 K | 323 K | 323.15 K
100 kPa, x1 = 0.121 | 1.831 | – | 1.255 | – | 1.031 | –
100 kPa, x1 = 0.236 | 1.534 | – | 1.069 | – | 0.8722 | –
100 kPa, x1 = 0.346 | 1.297 | – | 0.9238 | – | 0.7426 | –
100 kPa, x1 = 0.452 | 1.128 | – | 0.8353 | – | 0.6858 | –
100 kPa, x1 = 0.553 | 1.049 | – | 0.7844 | – | 0.6551 | –
100 kPa, x1 = 0.65 | 0.9984 | – | 0.7302 | – | 0.6131 | –
100 kPa, x1 = 0.742 | 0.9819 | – | 0.7012 | – | 0.5948 | –
100 kPa, x1 = 0.832 | 0.9796 | – | 0.6884 | – | 0.5673 | –
100 kPa, x1 = 0.918 | 0.9769 | – | 0.6724 | – | 0.5517 | –
101.33 kPa, x1 = 0.1002 | – | 1.874 | – | 1.48 | – | 1.165
101.33 kPa, x1 = 0.2 | – | 1.523 | – | 1.254 | – | 0.989
101.33 kPa, x1 = 0.3001 | – | 1.359 | – | 1.075 | – | 0.899
101.33 kPa, x1 = 0.3998 | – | 1.197 | – | 0.975 | – | 0.806
101.33 kPa, x1 = 0.5 | – | 1.079 | – | 0.889 | – | 0.75
101.33 kPa, x1 = 0.6002 | – | 1.001 | – | 0.851 | – | 0.734
101.33 kPa, x1 = 0.7 | – | 0.952 | – | 0.805 | – | 0.721
101.33 kPa, x1 = 0.8003 | – | 0.929 | – | 0.788 | – | 0.709
101.33 kPa, x1 = 0.9 | – | 0.914 | – | 0.772 | – | 0.698
